From the SangsterLogP compilation
Each block holds one compound with its values, some of them ahead of it.

Columns and labels:
[1] = method code SF-AS, from DOI: 10.1007/s001289900721, PMID: 9657823
[2] = not given; remark: listed apart in the source
[3] = method code SF-GLC, from DOI: 10.1016/0045-6535(83)90264-3
[4] = method code SF-AS, from DOI: 10.1021/jm00304a030, PMID: 5793164; details: pH 7.4
[5] = not given; remark: listed apart in the source
[6] = method code SF-AS, from DOI: 10.1021/jm00069a002, PMID: 8355246; details: pH 7.4
[7] = method code SF-HPLC, from DOI: 10.1248/cpb.43.1894
[8] = method code SF-AS, from DOI: 10.1016/j.bmc.2007.10.035, PMID: 18029186; details: pH 7.4
[9] = method code SF-AS, from DOI: 10.1002/jhet.5570150704
[10] = method code SF-GLC,AS, from DOI: 10.2134/jeq1981.00472425001000030028x
[11] = method code SF-HPLC, from Blakemore, C.; Brown, H.; Durant, J.; Emmett, C.; Ganellin, R.; Parsons, E.; Rasmussen, C. (1980). SK&F 92994: a new histamine H2-receptor antagonist. COMMUNICATIONS: Part II. Br. J. Pharmacol., …
[12] = method code SF, from DOI: 10.1016/0378-5173(87)90234-1
[13] = not given; remark: listed apart in the source
[14] = method code SF-RC, from DOI: 10.1002/ps.2780130506
[15] = method code SF-AS, from DOI: 10.1016/0006-2952(65)90227-3, PMID: 14322976; details: pH 6.8
[16] = not given; remark: listed apart in the source
[17] = method code SF-AS, from DOI: 10.1007/bf02922495
[18] = not given; remark: listed apart in the source
[19] = method code SF-RC, from PMID: 3794812
[20] = not given; remark: listed apart in the source
[21] = method code SF-AS, from Frater-Schröder, M.; Alder, S.; Zbinden, G. (1976). Neurotoxic effects of pyridoxine and analogs in rats. Proc. Eur. Soc. Toxicol, 17, 277-284.; details: pH 7.4
[22] = method code SF-MS, from DOI: 10.1016/j.fluid.2014.01.017; details: pH 7.6
[23] = method code SF-GLC, from DOI: 10.1007/bf00343116, PMID: 4026577
[24] = not given; remark: listed apart in the source
[25] = method code SF-RC, from DOI: 10.1182/blood.v76.11.2389.bloodjournal76112389, PMID: 2257308; details: pH 7.4
[26] = method code SF, from Korenman, Y. (1975). Extraction of hydroxybenzoic acids and some of their derivatives from aqueous solution. Zh. Prikl. Khim., 48(6)1472-1474.; details: pH 2.0
[27] = method code SF-C, from DOI: 10.1021/ja00901a033
[28] = not given; remark: listed apart in the source
[29] = method code SF-AS, from DOI: 10.1016/j.ejmech.2003.11.003, PMID: 14987836
[30] = not given; remark: listed apart in the source
[31] = not given; remark: listed apart in the source
[32] = not given; remark: listed apart in the source
[33] = method code SF, from DOI: 10.1002/em.2850190108, PMID: 1732104
[34] = not given; remark: listed apart in the source
[35] = method code SF-AS, from DOI: 10.1021/jm00162a004, PMID: 3023612
[36] = method code SF-HPLC, from DOI: 10.1016/0378-5173(88)90220-7; details: pH 7.4
[37] = not given; remark: listed apart in the source
[38] = method code SF, from DOI: 10.1002/ps.2780340212; details: pH 7.0
[39] = method code SF-GLC, from DOI: 10.1016/s0003-2670(00)84505-5

SMILES: COc1ccc(N)cc1
- logP [2]: 0.98

SMILES: O=C(O)c1c(C(=O)O)c(C(=O)O)c(C(=O)O)c(C(=O)O)c1C(=O)O
- logP [3]: -1.45

SMILES: CSC(=S)C1=C(SC)CCC1
- logP [7]: 3.59

SMILES: Nc1c([N+](=O)[O-])cc(C(F)(F)F)cc1[N+](=O)[O-]
- logP [10]: 2.29

SMILES: CN(Cc1ccc(Br)cc1)N=O
- logP [11]: 1.57

SMILES: COc1ccc(OC)c(C=O)c1
- logP [1]: 1.91

SMILES: N#Cc1ccccc1
- logP [13]: 1.5

SMILES: c1ccc(-c2nnn[nH]2)cc1
- logP [16]: 1.5

SMILES: Cc1ccc(C=C(C#N)C#N)o1
- logP [17]: 2.03

SMILES: Cc1c(Cl)cccc1[N+](=O)[O-]
- logP [18]: 3.09

SMILES: NS(=O)(=O)c1nnc(NS(=O)(=O)c2ccccc2)s1
- logP [20]: 0.22

SMILES: Cc1ncc(CO)c(CO)c1O
- logD [21]: -0.77

SMILES: CCCC/C=C/C=O
- logD [22]: 2.06

SMILES: N#CCCCCCCC#N
- logP [23]: 0.59

SMILES: O=C(O)c1ccc(O)c(O)c1O
- logD [26]: 1.05

SMILES: CN(Cc1cccc(Br)c1)N=O
- logP [11]: 1.65

SMILES: Cc1cccc([N+](=O)[O-])c1
- logP [18]: 2.4

SMILES: CN(C)c1cc[n+]([O-])cc1
- logP [28]: -0.9

SMILES: CSc1nc2ccccc2s1
- logP [3]: 3.15

SMILES: O=NN(CCCl)S(=O)(=O)N1CCCCC1
- logP [29]: 1.03

SMILES: [O-][n+]1ccc(-c2ccccc2)cc1
- logP [28]: 0.93

SMILES: CC(C)c1ccccc(=O)c1O
- logD [15]: 0.96

SMILES: Cn1cnc2c1c(=O)[nH]c(=O)n2C
- logP [32]: -0.82

SMILES: c1ccc2[nH]ncc2c1
- logD [4]: 1.82

SMILES: CC(=O)c1ccccc1[N+](=O)[O-]
- logP [33]: 1.53

SMILES: Cc1ncc(CO)c(C=O)c1O
- logD [21]: -0.82

SMILES: CCCCC1(C)CCC=[N+]1[O-] (centres undefined)
- logP [35]: 0.04

SMILES: [O-][N+]1=CCCC12CCCC2
- logP [35]: -0.1

SMILES: N#CCCCCCC#N
- logP [23]: 0.05

SMILES: O=[N+]([O-])c1cccc2cccc([N+](=O)[O-])c12
- logP [33]: 2.52

SMILES: CCCCCCCC=O
- logD [22]: 2.53

SMILES: COc1cc(Cl)c(Cl)c(Cl)c1
- logP [37]: 4.1

SMILES: NS(=O)(=O)c1cc2c(cc1Cl)NC(C(Cl)Cl)NS2(=O)=O (centres undefined)
- logP: 0.64

SMILES: CC(C)(C)C(=O)C(Oc1ccc(Cl)cc1)n1cncn1 (centres undefined)
- logD [38]: 2.9

SMILES: CCOc1cc(Cl)c(Cl)c(Cl)c1
- logP [37]: 4.61

SMILES: COc1c(O)c(Cl)c(Cl)c(Cl)c1Cl
- logP [39]: 4.42

SMILES: Brc1ccccc1-c1nnn[nH]1
- logP [16]: 1.81

SMILES: Cc1cccc(C)c1
- logP [13]: 3.37

SMILES: CCC(=O)n1c(=O)[nH]cc(F)c1=O
- logD ([12]; pH 7.4): -0.21

SMILES: N#CC(C#N)=Cc1ccc(Br)o1
- logP [17]: 2.28

SMILES: CCCCNC(=O)CCn1ccc(=O)c(O)c1C
- logD [6]: -0.1

Further lines, results first:

- logP: 0.42
SMILES: CC(CS)C(=O)N1CCC[C@H]1C(=O)O (some centres undefined)

- logP [1]: 0.54
SMILES: O=Cc1cc(O)ccc1O

- logD [4]: 1.15
SMILES: O=C1Cc2ccccc2N1

- logP [5]: -1.22
SMILES: Cc1cccc(C(=O)O)n1

- logD [6]: 0.05
SMILES: CCc1[nH]ccc(=O)c1O

- logD [8]: -1.25
SMILES: CN(CCO)C(=O)Cn1ccnc1[N+](=O)[O-]

- logP [9]: 0.79
SMILES: Cc1nc(-c2ccccn2)no1

- logD ([12]; pH 4.0): 1.42
SMILES: O=C(OC1CCCCC1)n1cc(F)c(=O)[nH]c1=O

- logP [14]: 1.8
SMILES: NC(=O)Nc1ccc(Cl)cc1

- logD [15]: 0.83
SMILES: O=Nc1ccc(O)c(=O)cc1

- logP [19]: 1.02
SMILES: COCC(O)Cn1c([N+](=O)[O-])nc(Br)c1Br (centres undefined)

- logP [5]: 0.45
SMILES: O=C(O)c1cccc(C(=O)O)n1

- logP [19]: 0.16
SMILES: COCC(O)Cn1c(Br)cnc1[N+](=O)[O-] (centres undefined)

- logP [24]: 1.39
SMILES: O=C(O)c1cccc(O)c1

- logD [25]: -0.52
SMILES: COCCn1ccc(=O)c(O)c1C

- logP [27]: 2.45
SMILES: O=C(O)COc1ccc(Br)cc1

- logP [2]: 1.25
SMILES: CC(=O)c1ccccc1N

- logD [8]: -1.16
SMILES: CC(=O)OC[C@H]1O[C@H](OCCN(C)C(=O)Cn2ccnc2[N+](=O)[O-])[C@@H](OC(C)=O)[C@@H](OC(C)=O)[C@@H]1OC(C)=O

- logP [10]: 3.65
SMILES: CCCNc1c([N+](=O)[O-])cc(C(F)(F)F)cc1[N+](=O)[O-]

- logP [14]: 1.57
SMILES: CSc1cccc(NC(N)=O)c1

- logP [30]: -0.05
SMILES: O=[N+]([O-])c1nccn1C1OCC(I)CC1O (centres undefined)

- logP [29]: -0.19
SMILES: COC(=O)[C@@H]1CCCN1S(=O)(=O)N(CCCl)N=O

- logD [26]: 2.87
SMILES: O=C(O)c1cc(Br)ccc1O

- logP [31]: 0.59
SMILES: CC(C)NC(=O)c1cccnc1

- logP [20]: 1.43
SMILES: NS(=O)(=O)c1nnc(-c2ccccc2Cl)s1

- logP [34]: 1.9
SMILES: COc1cccc(C(=O)O)c1

- logD [36]: 2.95
SMILES: Cc1ccc(S(=O)(=O)N(C)C(=O)c2ccccc2)cc1

- logP [7]: 4.1
SMILES: COc1ccc(C(=CSC)C(=S)SC)cc1

- logD [36]: 1.28
SMILES: CNS(=O)(=O)c1ccc(C)cc1

- logP [30]: 0.7
SMILES: O=[N+]([O-])C1NC=CN1C1OC(CI)C(O)C1O (centres undefined)

- logP [24]: 2.19
SMILES: O=C(O)c1ccccc1Br

- logP [27]: 1.08
SMILES: CC(=O)c1ccc(OCC(=O)O)cc1

- logP [31]: -0.11
SMILES: O=C(NCCO)c1cccnc1

- logP [34]: 1.08
SMILES: NC(=O)c1ccccc1C(N)=O

- logD [38]: 0.8
SMILES: Cc1ccc(NC(N)=O)cc1

- logD [25]: -0.3
SMILES: CCc1c(O)c(=O)ccn1C

- logP [32]: 0.29
SMILES: CC(=O)CCCCn1c(=O)c2c(ncn2C)n(C)c1=O

- logP [9]: 0.24
SMILES: CNC(=O)OCc1cccc(COC(=O)NC)n1
